Common to all, as to type: biochemical
One experiment deals with T1, MMP-13 (Homo sapiens, UniProt P45452).
T1 construct: a fragment of 767 bp encoding original 84 amino acids of complete MMP-13 and encoding 164 amino acids; made in house; host or cells: E. coli BL21 (DE3), pET11a
As to the kind of experiment: Test 2 Test on MMP-13 inhibition activity (fluorogenic peptide substrate). As to conditions: activated MMP-13, 37° C. From the text: Test 2 Test on MMP-13 Inhibition Activity
In order to subcloning C-terminal truncated cDNA in which the cDNA encodes procollagenase-3 (proMMP-13) (J. Biol. Chem., 269(24), 16766-16773 (1994)), two synthesized oligonucleotide primer fragments: • (5′-[…]-3′ and 5′-[…]-3′: In former the sequence for specific NdeI site (under line) including first methionine is included, and in latter terminal codon and BamHI site (under lined) are included.) were used with human cartilage cell cDNA library for PCR. Due to these primers and Pfu DNA polymelase (STRATAGENE) for PCR, there was obtained a fragment of 767 bp encoding original 84 amino acids of complete MMP-13 and encoding 164 amino acids. The said fragment was cut out with digestion by NdeI and BamHI, and the fragment was annealed to NdeI site and BamHI site of pET11a (STRATAGENE). The recombinant plasmid was transformed into E. coli BL21 (DE3) and the bacteria were cultivated. The crude cell extract was prepared according to the method of Biochemistry. The said extract was dialyzed with 20 mM Tris-HCl (pH 7.2)/5 mM CaCl2/0.02% NaN3 solution, treated with SP-sepharose HP column (1.6×10 cm, Amasham-Pharmacia biotec), and the eluting was carried out by liner gradient from 0 to 0.3 m of sodium chloride solution (50 ml) (partially purified proMMP-13 was eluted at about 0.2M.) The eluted fraction was dialyzed with 20 mM Tris-HCl (pH 7.9)/5 mM CaCl2/200 mM (NH4)2SO4/0.02% NaN3 solution, treated with phenylsepharose HP column (1.6×5 cm, Amersham-Pharmacia biotec), and the eluting was carried out by liner gradient from 0.2M to 0M sulfuric acid ammonium solution (purified proMMP-13 was eluted at about 50 mM.). The eluted fraction was concentrated by YM-5 ultrafilter membrane, and activated by 4-aminophenyl mercuric acetate. Activated MMP-13 was treated with gel filtration chromatography in accordance with the method of Biochemistry to be separated from propeptide. Inhibiting Test Method
Enzyme activity test was carried out by the method of G. Knight (FEBS Lett., 296(3), 263-266 (1992)).
A mixture of activated MMP-13 (20 nM, 10 μl), buffer solution (70 μl, pH 7.5 solution containing 100 mM Tris-HCl solution, 10 mM calcium chloride solution, 100 mM sodium chloride solution and 0.05% Briji-35 solution), MOCAc-Pro-Leu-Gly-Leu-A2pr(DNP)-Ala-Arg-NH2 in 0.1% DMSO solution (100 μM, 10 μl) and a test compound in DMSO solution was incubated for 1.5 hours at 37° C. The mixture was put on a 96 well-plate (100 μl/wel), and the plate was incubated at 37° C. The enzyme activity in the presence of the compound was measured based on fluorescence intensity (λex 320 nm, λem 405 nm), and IC50 was calculated.

A further experiment deals with T2, MMP-3 (Homo sapiens, UniProt P08254).
T2 construct: C-terminal truncated cDNA in which the cDNA encodes human prostromelysin; made in house; host or cells: E. coli
T2 sequence (P08254 100-272 limits assumed): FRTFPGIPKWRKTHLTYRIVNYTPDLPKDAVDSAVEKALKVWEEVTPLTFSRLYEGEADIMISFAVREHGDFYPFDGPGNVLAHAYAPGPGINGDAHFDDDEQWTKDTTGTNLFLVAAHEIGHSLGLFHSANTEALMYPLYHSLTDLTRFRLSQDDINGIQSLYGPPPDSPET
As to the kind of experiment: Test 1 Test on MMP-3 inhibiting activity (fluorogenic peptide substrate). As to conditions: activated MMP-3, 37° C.; read-out: MMP-3 inhibition activity value. Here is the method: Test 1 Test on MMP-3 Inhibiting Activity
C-terminal truncated cDNA in which the cDNA encodes human prostromelysin, was subcloned (proMMP-3, cDNA sequence in Nature, 348, 699-704 (1990)), was expressed in E. coli and then, the expressed protein was purified in accordance with the method described in Biochemistry 30, 6476-6483 (1991). proMMP-3 activation was carried out by treating with 1 mM 4-aminophenyl mercuric acetate for 60 minutes at 37° C.
Enzyme activity test was conducted by the method of C. G. Knight (FEBS Lett., 296(3), 263-266 (1992)).
A mixture of activated MMP-3 (20 nM, 10 μl), buffer solution (70 μl, pH 7.5 solution containing 100 mM Tris-HCl solution, 10 mM calcium chloride solution, 100 mM sodium chloride solution and 0.05% Brij-35 solution), MOCAc-Pro-Leu-Gly-Leu-A2pr(DNP)-Ala-Arg-NH2 in 0.1% DMSO solution (100 μM, 10 μl) and a test compound in DMSO solution was incubated for 1.5 hours at 37° C. The mixture was put on a 96 well-plate (100 μl/well) and the plate was cultured at 37° C. The enzyme activity in the presence of the compound was measured based on fluorescence intensity (λex 320 nm, λem 405 nm), and IC50 was calculated.

The target in a further experiment is T3, MMP-14 (MT1-MMP) (Homo sapiens, UniProt P50281).
T3 construct: purchased Biogenesis, supplied by Cosmobio (Nakarai Tesku)
As to the kind of experiment: Test 5 MMP-14 (MT1-MMP) inhibiting activity test. As to conditions: human recombinant MT1-MMP, 37° C.; read-out: MMP-14 inhibition activity value. Here is the method:
Test 5 MMP-14 (MTI-MMP) Inhibiting Activity Test
Human recombinant MTI-MMP used the product prepared by Biogenesis and supplied by Cosmobio (Nakarai Tesku).
An assay buffer solution (70 μl, pH 7.5 solution containing 0.1M Tris-HCl solution, 0.1M calcium chloride solution, 10 mM sodium chloride solution and 0.05% Brij-35 solution), 0.1 w/w % a compound in DMSO (10 μl), MMP substrate solution (MOCAc-Pro-Leu-Gly-Leu-A2pr(DNP)-Ala-Arg-NH2 (Peptide Lab.) diluted with the assay buffer solution (50 μM, 10 μl)) and human recombinant MT1-MMP (0.4 pg/10 μl/well) were well agitated under stirring. The enzyme activity of the mixture was measured based on fluorescence intensity (λex 320 nm/λem 405 nm) by a fluorescence reader. After the mixture was incubated at 37° C. for 0.5 hour, the fluorescence intensity (λex 320 nm/λem 405 nm) was measured every hour, and IC50 was calculated.
The inhibition value was calculated by withdrawing average value of blank well from fluorescence mean value of well in which MT1-MMP was added. As the blank was used the mixed solution prepared by adding assay buffer (10 μl) instead of MT1-MMP solution.

In the next experiment the target is MMP-9 (Homo sapiens, UniProt P14780). Kind of experiment: Test 4 MMP-9 inhibiting activity test (biotin labeled gelatin). The conditions noted are these: activated human MMP-9, biotin labeled gelatin; read-out: MMP-9 inhibition activity value. The procedure: Test 4 MMP-9 Inhibiting Activity Test
Chain of MMP-9 (P14780 107-707 limits assumed): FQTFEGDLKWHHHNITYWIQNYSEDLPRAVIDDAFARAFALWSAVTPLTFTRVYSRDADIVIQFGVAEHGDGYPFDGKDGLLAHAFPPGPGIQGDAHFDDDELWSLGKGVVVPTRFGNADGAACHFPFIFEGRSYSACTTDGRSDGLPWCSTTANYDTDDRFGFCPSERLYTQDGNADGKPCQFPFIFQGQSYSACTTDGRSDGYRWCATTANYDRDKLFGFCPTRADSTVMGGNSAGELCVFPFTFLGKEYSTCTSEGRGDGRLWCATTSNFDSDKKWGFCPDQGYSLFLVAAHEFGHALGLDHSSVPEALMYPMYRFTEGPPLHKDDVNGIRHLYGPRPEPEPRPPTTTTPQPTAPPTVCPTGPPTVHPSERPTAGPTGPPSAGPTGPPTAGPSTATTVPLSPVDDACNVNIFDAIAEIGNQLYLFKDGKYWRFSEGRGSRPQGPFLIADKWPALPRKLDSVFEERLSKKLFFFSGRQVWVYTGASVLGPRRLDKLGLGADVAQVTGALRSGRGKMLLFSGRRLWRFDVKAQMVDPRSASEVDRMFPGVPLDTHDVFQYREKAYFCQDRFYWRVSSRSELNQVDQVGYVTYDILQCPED
A mixture of buffer solution (190 μl; pH 7.5 solution containing 50 mM Tris-HCl solution, 0.5 m sodium chloride solution and 5 mM calcium chloride solution), human MMP-9 (10 μl) and trypsin solution (20 μl; trypsin 3 mg in activated buffer (5 ml)) was incubated at 37° C. for 10 minutes. Thereto was added aprotinine solution (20 μl; aprotinine (3 mg) in buffer (5 ml)) and the mixture was incubated at 37° C. for 10 minutes, followed by addition of buffer (2 ml). The mixture was preserved under cooling with ice until use.
A mixture of DMSO solution (2 μl) containing definite concentration of the compound, biotin labeled gelatin (188 μl) and activated MMP-9 solution (10 μl) was put on a 96 well-assay plate (protein nonabsorbance type), well agitated, and incubated at 37° C. for 1 hour. This solution was transferred to Streptavidin-coating plate, and agitated at 15° C. to 30° C. for 30 minutes. And then the solution was washed with TTC buffer solution (200 μl) three times. Thereto was added Streptavidin-POD (200 μl) and the mixture was agitated at 15° C. to 25° C. for 60 minutes, followed by washing with TTC buffer (200 μl) three times. Then, ABTS solution (200 μl) was added thereto and after standing at room temperature for 40 minutes, furuorescence intensity was measured at 405 nm and IC50 was calculated.
In case of the above test, DMSO (2 μl) was used as a control instead of a sample solution. In the case of a blank, DMSO (2 μl) instead of the sample solution and the solution (10 μl) prepared in the same manner as preparation of […] but without adding 1.2 Uhuman MMP-9, instead of activated MMP-9 solution (10 μl), were used.

`CC(C)CN(CC(=O)NO)S(=O)(=O)c1ccc(Oc2ccc(S(C)(=O)=O)cc2)cc1` [Example 5, N′^1′-Hydroxy-N′^2′-isobutyl-N′^2′-({4-[4-(methylsulfonyl)phenoxy]phenyl}sulfonyl)glycinamide]: the IC50 was 0.0013 µM at MMP-13, 0.0154 µM at MMP-3, 0.105 µM at MMP-14 (MT1-MMP) and more than 0.1 µM at MMP-9.

The values are drawn from US7504537B2, “Hydroxamic acid derivative and MMP inhibitor containing the same as active ingredient” (Dainippon Sumitomo Pharma Co., Ltd., priority 2001, dated 2009).
